Results taken from the Deep4Chem optical property database.
Where “and” joins values, the source holds several entries; their conditions need not be identical. Identical values can stand only once. Values belong to the compound of their own block, whether it stands above or below them.

Assay: solvent given as SMILES

absorption maximum (in ClC(Cl)Cl): 622 nm
Compound: F[B-]1(F)n2c(ccc2-c2cccs2)C(c2ccc(Br)cc2)=C2C=CC(c3cccs3)=[N+]21

absorption maximum (in c1ccccc1): 404 nm
Compound: COc1ccc2ccc3oc(=O)c(-c4ccccc4)nc3c2c1

absorption maximum (in O): 646 nm
Compound: Cc1cc(N(C)C)ccc1C1=C2C=CC(=[N+](C)C)C=C2[Si](C)(C)c2cc(N(C)C)ccc21

Compound: COc1ccc(/C=C/C2=CC(/C=C/c3ccc(OC)cc3)=[O+][B-](OC(C)=O)(OC(C)=O)O2)cc1
absorption maximum (in C1CCOC1): 456 nm
absorption maximum (in CC#N): 462 nm
absorption maximum (in CC(C)=O): 458 nm
absorption maximum (in CS(C)=O): 468 nm
absorption maximum (in Cc1ccccc1): 456 nm
absorption maximum (in ClC(Cl)Cl): 464 nm
absorption maximum (in ClCCl): 464 nm

Compound: N#Cc1cc2ccc(cc2)c2cccc3cccc(c4ccc(cc4)cc(C#N)c4ccc(cc4)c4cccc5cccc(c6ccc1cc6)c54)c32
absorption maximum (in Cc1ccccc1): 350 nm

absorption maximum (in CCO): 379 nm
Compound: CCN(CC)c1cc2oc3cc(O)c(F)cc3c(=O)c2cc1F

absorption maximum (in O): 649 nm
Compound: COc1ccc(C2=C3C=CC(=[N+](C)C)C=C3[Si](C)(C)c3cc(N(C)C)ccc32)c(OC)c1

absorption maximum (in ClCCl): 303 nm
Compound: COc1ccc(-n2c3ccccc3c3c(C)cc4ccccc4c32)cc1

Compound: CC[N+]1(CC)CN2C(=N1)C(C(=O)O)=Cc1cc(OC)c(OC)cc12
absorption maximum (in O): 392 nm

Compound: CC(C)c1cc(C(C)C)c(B2c3ccccc3Oc3cc(-n4c5ccccc5c5c6c(c7ccccc7n6-c6ccccc6)c6c(c7ccccc7n6-c6ccccc6)c54)ccc32)c(C(C)C)c1
absorption maximum (in Cc1ccccc1): 458 nm

absorption maximum (in ClCCl): 445 nm
Compound: COCCOCCOCCOCC(COCCOCCOCCOC)Oc1cc(/C=C/c2ccc(/C=C(\C#N)c3ccncc3)cc2)c(OC(COCCOCCOCCOC)COCCOCCOCCOC)cc1/C=C/c1ccc(/C=C(\C#N)c2ccncc2)cc1

absorption maximum (in CS(C)=O): 353 nm
Compound: Brc1ccc(-c2nc3sc4ccccc4c3s2)cc1

absorption maximum (in C1CCOC1): 519 nm
absorption maximum (in CN1CCCC1=O): 525 nm
absorption maximum (in CN(C)C=O): 522 nm and 524 nm
Compound: O=C1c2ccc3c4ccc5c6c(ccc(c7ccc(c2c37)C(=O)N1c1ccc(O)cc1)c64)C(=O)N(c1ccc(O)cc1)C5=O

absorption maximum (in ClCCl): 323 nm
Compound: COC(=O)c1c(-c2cc3ccccc3oc2=O)nn(-c2cccc(F)c2)c1C(=O)OC

Compound: CCC1(CC)c2ccccc2-c2c1c1c(c3c2C(CC)(CC)c2cc(N(c4ccccc4)c4ccccc4)ccc2-3)C(CC)(CC)c2ccccc2-1
absorption maximum (in C1CCOC1): 356 nm
absorption maximum (in CC#N): 353 nm
absorption maximum (in CC(C)=O): 354 nm
absorption maximum (in CCCCCC): 356 nm
absorption maximum (in Cc1ccccc1): 360 nm

absorption maximum (in ClCCl): 422 nm
Compound: S=P1(c2ccccc2)c2cccc3c4c5ccccc5c5ccccc5c4c4ccc1n4c23 (centres undefined)

absorption maximum (in CC#N): 671 nm
Compound: CN1/C(=C\C=C\C2=C3C=CC(c4ccccc4)=[N+]3[B-](F)(F)n3c2ccc3-c2ccccc2)C(C)(C)c2ccccc21

absorption maximum (in CCO): 395 nm
absorption maximum (in ClCCl): 397 nm
Compound: COCc1ncc(-c2c3ccccc3c(-c3cnc(COC)nc3)c3ccccc23)cn1

absorption maximum (in CCO): 357 nm
Compound: CC(C)Nc1cc(F)c(C(=O)c2cc(F)c(NC(C)C)cc2F)cc1F

absorption maximum (in ClCCl): 439 nm
Compound: COCCOCCOCCOCC(COCCOCCOCCOC)Oc1cc(/C=C/c2ccc(/C=C(\C#N)c3ccc(C(F)(F)F)cc3)cc2)c(OC(COCCOCCOCCOC)COCCOCCOCCOC)cc1/C=C/c1ccc(/C=C(\C#N)c2ccc(C(F)(F)F)cc2)cc1

Compound: O=c1c(Nc2ccccc2)c([O-])c1=[NH+]c1ccccc1
absorption maximum (in C1CCOC1): 401 nm
absorption maximum (in CC#N): 390 nm
absorption maximum (in CC(C)=O): 398 nm
absorption maximum (in CCO): 393 nm
absorption maximum (in CCOCC): 400 nm
absorption maximum (in CN1CCCC1=O): 393 nm
absorption maximum (in CN(C)C=O): 393 nm
absorption maximum (in CO): 390 nm
absorption maximum (in CS(C)=O): 378 nm
absorption maximum (in O): 374 nm

absorption maximum (in ClC(Cl)Cl): 754 nm
Compound: CCCCCCCCOc1ccc(-c2c3c4n(c(-c5ccc(OCCCCCCCC)cc5)c3c3n2[B-](F)(F)[n+]2c(ccc5cc(C(C)(C)C)ccc52)C=3C#N)[B-](F)(F)[n+]2c(ccc3cc(C(C)(C)C)ccc32)C=4C#N)cc1

absorption maximum (in ClCCl): 400 nm
Compound: O=[N+]([O-])c1ccc2nc3cc4ccccc4cc3c(-c3ccccc3)c2c1

absorption maximum (in CC#N): 388 nm
absorption maximum (in CO): 393 nm
absorption maximum (in ClCCl): 391 nm
Compound: O=C1c2ccccc2-c2c(-c3cccc(Cl)c3O)[nH]c(=O)n21

absorption maximum (in O): 430 nm
Compound: COc1cc(-c2cc(N3CCCCC3)c(C#N)c3c2-c2cccc4cccc-3c24)cc(OC)c1OC

absorption maximum (in ClC(Cl)Cl): 436.68 nm
Compound: CCCCCCn1c2cc(/C=C(\C#N)c3cccs3)ccc2c2ccc(/C=C(\C#N)c3cccs3)cc21

absorption maximum (in CC#N): 348 nm
absorption maximum (in CCCCCC): 350 nm
absorption maximum (in CO): 346 nm
absorption maximum (in c1ccccc1): 356 nm
Compound: O=c1oc2cc3ccccc3cc2nc1-c1ccccc1

absorption maximum (in C1COCCO1): 694 nm
absorption maximum (in CCO): 681 nm
absorption maximum (in CN(C)C=O): 681 nm
absorption maximum (in ClC(Cl)Cl): 690 nm
Compound: CCCCCCCN1C(=CC2=C([O-])C(=CC3=[N+](CCCCCCC)c4ccccc4C3(C)C)C2=C(C#N)C#N)Sc2ccccc21

Compound: Cc1cccc2cc(-c3cc4cccc(C)c4oc3=O)oc12
absorption maximum (in CC#N): 369 nm
absorption maximum (in CCOC(C)=O): 370 nm
absorption maximum (in CS(C)=O): 373 nm
absorption maximum (in Cc1ccccc1): 376 nm
absorption maximum (in O): 367 nm

absorption maximum (in C1CCOC1): 691 nm
absorption maximum (in CC#N): 687 nm
absorption maximum (in ClCCl): 700 nm
Compound: CCC(CC)COC1=CC2=C3c4cc(OCC(CC)CC)c(-c5ccccc5)n4[B-](F)(F)[n+]4nnn(c43)[B-](F)(F)[N+]2=C1c1ccccc1

absorption maximum (in CS(C)=O): 538 nm
Compound: COc1cc(OC)cc(C2=C3C(C)=C(I)C(C)=[N+]3[B-](F)(F)n3c(C)c(I)c(C)c32)c1

absorption maximum (in C1COCCO1): 456 nm
Compound: CCC12C(=C3C(=C4c5ccc(-c6ccccc6)cc5S(=O)(=O)C41CC)C(F)(F)C(F)(F)C3(F)F)c1ccc(-c3ccccc3)cc1S2(=O)=O (centres undefined)

absorption maximum (in ClCCl): 376 nm
Compound: COc1cc2c3sc4ccccc4c3c3cncnc3c2c(OC)c1OC

absorption maximum (in CCO): 361 nm
Compound: CCN(CC)c1cc(F)c(C(=O)c2cc(F)c(F)cc2F)cc1F

absorption maximum (in C1CCCCC1): 385.82 nm
Compound: C[Si](C)(c1cccc2cc3ccccc3cc12)[Si](C)(C)c1cccc2cc3ccccc3cc12

absorption maximum (in ClCCl): 615 nm
Compound: CCCCN1C(=O)c2cc(Oc3ccc(C(C)(C)C)cc3)c3c4c(Oc5ccc(C(C)(C)C)cc5)cc5c(=O)[nH]/c(=C\c6ccccn6)c6cc(Oc7ccc(C(C)(C)C)cc7)c(c7c(Oc8ccc(C(C)(C)C)cc8)cc(c2c37)C1=O)c4c56

absorption maximum (in CC#N): 306.26 nm
absorption maximum (in CCO): 309.39 nm
absorption maximum (in ClCCl): 311 nm
Compound: CN(C)c1cc(-c2ccc(C#Cc3ccncc3)cc2)cc2ccccc12

absorption maximum (in ClC(Cl)Cl): 401.5 nm
Compound: Cc1cccc(C2=Cc3c4ccccc4cc[n+]3[B-](F)(F)O2)c1

absorption maximum (in ClC(Cl)Cl): 306 nm
Compound: COc1ccc(-c2ncc3ccccn23)cc1

absorption maximum (in CO): 566 nm
Compound: COC(=O)COc1ccc(/C=C/C2=[N+]3C(=C(c4ccc(N(C)C)cc4)c4c(C)cc(C)n4[B-]3(F)F)C(C)=C2)cc1

absorption maximum (in ClCCl): 701 nm
Compound: CCN(CC)c1ccc2c(-c3ccccc3C(=O)O)c3c([o+]c2c1)/C(=C/c1nc(C)n2ccccc12)CCC3

absorption maximum (in CO): 437 nm
Compound: O=C1C=C(Nc2ccc([N+](=O)[O-])cc2[N+](=O)[O-])C(=O)c2ccccc21

Compound: c1ccc(-c2nc(-c3ccc(-c4ccc(N(c5ccccc5)c5ccccc5)cc4)cn3)oc2-c2ccccc2)cc1
absorption maximum (in C1CCOC1): 351 nm
absorption maximum (in C1COCCO1): 354 nm
absorption maximum (in CC#N): 353 nm
absorption maximum (in CC(C)=O): 352 nm
absorption maximum (in CC(C)OC(C)C): 351 nm
absorption maximum (in CCCCCC): 353 nm
absorption maximum (in CCCCOCCCC): 353 nm
absorption maximum (in CCN(CC)CC): 348 nm
absorption maximum (in CCOC(C)=O): 351 nm
absorption maximum (in CCOCC): 348 nm
absorption maximum (in Cc1ccccc1): 358 nm
absorption maximum (in c1ccccc1): 359 nm

absorption maximum (in C1CCCCC1): 415 nm
absorption maximum (in CC#N): 417 nm
absorption maximum (in CO): 416 nm
absorption maximum (in ClCCl): 419 nm
Compound: COc1c2ccccc2c(OC)c2c1c1cc(F)ccc1n2C

absorption maximum (in CC#N): 390 nm
Compound: Cc1c2ccc3c(C)[n+](C)ccc3c2cc[n+]1C

absorption maximum (in C1CCOC1): 451 nm
absorption maximum (in CC#N): 440 nm
absorption maximum (in CC(C)O): 452 nm
absorption maximum (in CCO): 451 nm
absorption maximum (in CN(C)C=O): 452 nm
absorption maximum (in CO): 447 nm
absorption maximum (in CS(C)=O): 456 nm
absorption maximum (in O): 460 nm
absorption maximum (in OCC(O)CO): 464 nm
Compound: CC(=O)c1ccc2ccc3c(NCCC(=O)NCCCCCCc4nc5c(=O)[nH]c(N)nc5n4[C@H]4C[C@H](O)[C@@H](CO)O4)ccc4ccc1c2c43

absorption maximum (in CC#N): 399 nm
Compound: COc1ccc(-c2csc(/C(C#N)=C/c3ccc([N+](=O)[O-])cc3)n2)cc1

absorption maximum (in CC#N): 335 nm
absorption maximum (in ClCCl): 341 nm
Compound: COC(=O)c1cccc2c1C#Cc1c(NC(C)=O)cccc1OCCCO2

Compound: CCCCc1ccc(-n2c3c4cc(F)ccc4nnc3c3c2c2nnc4ccc(F)cc4c2n3-c2ccc(CCCC)cc2)cc1
absorption maximum (in Cc1ccccc1): 315 nm

Compound: COC(=O)c1ccc2c3ccc(C(=O)OC)c4c(C(=O)OC)ccc(c5ccc(C(=O)OC)c1c25)c43
absorption maximum (in C1COCCO1): 470 nm
absorption maximum (in CC#N): 465 nm
absorption maximum (in CC(C)=O): 465 nm
absorption maximum (in CC(C)O): 476 nm
absorption maximum (in CCCCO): 476 nm
absorption maximum (in CN(C)C=O): 468 nm
absorption maximum (in CO): 465 nm
absorption maximum (in ClC(Cl)Cl): 469 nm

absorption maximum (in ClCCl): 406 nm
Compound: C1=Cc2ccc(N(c3ccccc3)c3ccccc3)cc2C2(c3cc(N(c4ccccc4)c4ccccc4)ccc31)c1ccccc1-c1ccccc12

Compound: CCCCCCCCCCC(CCCCCCCCCC)Cn1c2cc(-c3ccc(C(C)(C)C)cc3)c3cccc4c5ccc6c7cc(-c8cc(C(C)(C)C)cc(C(C)(C)C)c8)n8c7c(c7cc1c(c5c76)c2c34)=C1C=CC(c2cc(C(C)(C)C)cc(C(C)(C)C)c2)=[N+]1[B-]8(F)F
absorption maximum (in Cc1ccccc1): 780 nm

absorption maximum (in CO): 375 nm
Compound: O=C(O)CCCc1ccc2ccc3cccc4ccc1c2c34

Compound: c1ccc2c(c1)CCc1ccccc1N2c1c2ccccc2c(N2c3ccccc3CCc3ccccc32)c2ccccc12
absorption maximum (in Cc1ccccc1): 456 nm

absorption maximum (in CC#N): 515 nm
absorption maximum (in ClCCl): 517 nm
Compound: CCN(CC)c1ccc(/N=N/c2nc3ccc(OC)cc3s2)cc1
